Molecular target: T1, VEGFR2 (Homo sapiens, UniProt P35968)
T1 construct: gene KDR
Experiment: kinase enzyme assay (Reaction Biology), 10-point dose response, […] ATP
Format: biochemical

T1 sequence (P35968 20-1356): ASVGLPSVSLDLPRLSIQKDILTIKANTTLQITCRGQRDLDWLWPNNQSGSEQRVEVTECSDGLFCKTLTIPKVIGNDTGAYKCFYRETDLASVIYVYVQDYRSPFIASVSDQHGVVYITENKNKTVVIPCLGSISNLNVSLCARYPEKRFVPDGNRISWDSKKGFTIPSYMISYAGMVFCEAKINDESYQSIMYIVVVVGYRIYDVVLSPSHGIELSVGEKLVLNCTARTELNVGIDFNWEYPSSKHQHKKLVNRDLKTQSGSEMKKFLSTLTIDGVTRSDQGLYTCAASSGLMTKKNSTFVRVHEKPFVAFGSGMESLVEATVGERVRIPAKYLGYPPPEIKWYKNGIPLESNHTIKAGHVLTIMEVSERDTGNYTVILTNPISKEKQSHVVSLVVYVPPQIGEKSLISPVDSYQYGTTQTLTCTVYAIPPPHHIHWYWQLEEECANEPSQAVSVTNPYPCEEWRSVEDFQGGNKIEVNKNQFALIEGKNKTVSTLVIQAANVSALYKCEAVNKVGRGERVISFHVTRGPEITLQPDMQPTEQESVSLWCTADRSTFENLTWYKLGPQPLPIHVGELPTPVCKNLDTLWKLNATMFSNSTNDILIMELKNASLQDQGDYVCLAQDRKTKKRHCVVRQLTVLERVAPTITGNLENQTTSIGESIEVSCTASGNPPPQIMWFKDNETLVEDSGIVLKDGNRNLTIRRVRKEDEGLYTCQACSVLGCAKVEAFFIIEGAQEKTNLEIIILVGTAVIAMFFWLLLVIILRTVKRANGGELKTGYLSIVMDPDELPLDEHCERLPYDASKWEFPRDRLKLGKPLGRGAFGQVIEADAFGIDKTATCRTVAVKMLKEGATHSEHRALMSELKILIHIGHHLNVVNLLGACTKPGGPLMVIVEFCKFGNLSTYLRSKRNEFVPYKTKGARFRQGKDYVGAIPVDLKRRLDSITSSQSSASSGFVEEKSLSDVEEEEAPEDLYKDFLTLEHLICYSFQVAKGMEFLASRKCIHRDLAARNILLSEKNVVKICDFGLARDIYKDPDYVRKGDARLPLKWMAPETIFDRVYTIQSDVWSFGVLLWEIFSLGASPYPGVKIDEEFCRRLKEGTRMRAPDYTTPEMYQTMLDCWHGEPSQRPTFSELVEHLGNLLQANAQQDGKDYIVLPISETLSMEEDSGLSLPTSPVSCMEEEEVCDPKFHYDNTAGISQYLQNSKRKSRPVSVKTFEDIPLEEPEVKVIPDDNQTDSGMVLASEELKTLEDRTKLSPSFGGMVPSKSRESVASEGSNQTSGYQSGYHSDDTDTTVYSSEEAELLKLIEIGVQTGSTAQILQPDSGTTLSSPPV

Cc1cccc(-c2nc3n(c2-c2ccc4ncnn4c2)CCN3)n1 [TU2218]
IC50: 4.9 nM

Source: PMC11303640, “ALK5/VEGFR2 dual inhibitor TU2218 alone or in combination with immune checkpoint inhibitors enhances immune-mediated antitumor effects” (Cancer Immunology, Immunotherapy : CII, 2024)
